Experiments:
[1] = Compound cytotoxicity, XTT-based colorimetric assay; assay type: cell-based; conditions: human; uninfected MT2 cells, day 4, XTT assay
Protocol: Compound cytotoxicity and the corresponding CC50 values were determined using the same protocol as described in the antiviral assay except that uninfected cells were used. Cytotoxicity was assessed on day 4 in uninfected MT2 cells by using a XTT (2,3-bis[2-Methoxy-4-nitro-5-sulfophenyl]-2H-tetrazolium-5-carboxyanilide inner salt)-based colorimetric assay (Sigma-Aldrich, St Louis, Mo.).

[2] = test system: recombinant NL4-3 virus (Renilla luciferase) in MT-2 cells; assay: HIV cell culture assay (antiviral activity, luciferase readout); assay type: cell-based; conditions: Renilla, NL43
Protocol: HIV cell culture assay—MT-2 cells, 293T cells and the proviral DNA clone of NL4-3 virus were obtained from the NIH AIDS Research and Reference Reagent Program. MT-2 cells were propagated in RPMI 1640 media supplemented with 10% heat inactivated fetal bovine serum (FBS), 100 μg/ml penicillin G and up to 100 units/mL streptomycin. The 293T cells were propagated in DMEM media supplemented with 10% heat inactivated FBS, 100 μg/mL penicillin G and 100 μg/mL streptomycin. A recombinant NL4-3 proviral clone, in which a section of the nef gene was replaced with the Renilla luciferase gene, was used to make the reference virus used in these studies. The recombinant virus was prepared through transfection of the recombinant NL4-3 proviral clone into 293T cells using Transit-293 Transfection Reagent from Mirus Bio LLC (Madison, Wis.). Supernatent was harvested after 2-3 days and the amount of virus present was titered in MT-2 cells using luciferase enzyme activity as a marker by measuring luciferase enzyme activity. Luciferase was quantitated using the EnduRen Live Cell Substrate from Promega (Madison, Wis.). Antiviral activities of compounds toward the recombinant virus were quantified by measuring luciferase activity in MT-2 cells infected for 4-5 days with the recombinant virus in the presence of serial dilutions of the compound.
The 50% effective concentration (EC50) was calculated by using the exponential form of the median effect equation where (Fa)=1/[1+(ED50/drug conc.)m] (Johnson V A, Byington R T. Infectivity Assay. In Techniques in HIV Research. ed. Aldovini A, Walker B D. 71-76. New York: Stockton Press. 1990).

Row | SMILES | CC50 at 4 day [1] [nM] | EC50 [2] [nM]
1 | Cn1nc(NS(C)(=O)=O)c2c(Cl)ccc(-n3c([C@H](Cc4cc(F)cc(F)c4)NC(=O)Cn4nc(C(F)F)c5c4C(F)(F)[C@@H]4C[C@H]54)nc4nc(-c5ccc(F)c(F)c5F)ccc4c3=O)c21 (atropisomer, axis not shown; (P)) [Example 15, N—((S)-1-((3P)-3-(4-chloro-1-methyl-3-(methylsulfonamido)-1H-indazol-7-yl)-4-oxo-7-(2,3,4-trifluorophenyl)-3,4-dihydropyrido[2,3-d]pyrimidin-2-yl)-2-(3,5-difluorophenyl)ethyl)-2-((3bS,4aR)-3-(difluoromethyl)-5,5-difluoro-3b,4,4a,5-tetrahydro-1H-cyclopropa[3,4]cyclopenta[1,2-c]pyrazol-1-yl)acetamide] | > 100 | 0.035
2 | Cn1nc(NS(C)(=O)=O)c2c(Cl)ccc(-n3c([C@H](Cc4cc(F)cc(F)c4)NC(=O)Cn4nc(C(F)F)c5c4C(F)(F)[C@@H]4C[C@H]54)nc4nc(-c5ccccc5F)ccc4c3=O)c21 (atropisomer, axis not shown; (P)) [Example 1, N—((S)-1-((3P)-3-(4-chloro-1-methyl-3-(methylsulfonamido)-1H-indazol-7-yl)-7-(2-fluorophenyl)-4-oxo-3,4-dihydropyrido[2,3-d]pyrimidin-2-yl)-2-(3,5-difluorophenyl)ethyl)-2-((3bS,4aR)-3-(difluoromethyl)-5,5-difluoro-3b,4,4a,5-tetrahydro-1H-cyclopropa[3,4]cyclopenta[1,2-c]pyrazol-1-yl)acetamide] | > 1000 | 0.06
3 | Cn1nc(NS(C)(=O)=O)c2c(Cl)ccc(-n3c([C@H](Cc4cc(F)cc(F)c4)NC(=O)Cn4nc(C(F)F)c5c4C(F)(F)[C@@H]4C[C@H]54)nc4nc(-c5ccc(F)cc5F)ccc4c3=O)c21 (atropisomer, axis not shown; (P)) [Example 39, N—((S)-1-((3P)-3-(4-chloro-1-methyl-3-(methylsulfonamido)-1H-indazol-7-yl)-7-(2,4-difluorophenyl)-4-oxo-3,4-dihydropyrido[2,3-d]pyrimidin-2-yl)-2-(3,5-difluorophenyl)ethyl)-2-((3bS,4aR)-3-(difluoromethyl)-5,5-difluoro-3b,4,4a,5-tetrahydro-1H-cyclopropa[3,4]cyclopenta[1,2-c]pyrazol-1-yl)acetamide] | > 500 | 0.047
4 | Cn1nc(NS(C)(=O)=O)c2c(Cl)ccc(-n3c([C@H](Cc4cc(F)cc(F)c4)NC(=O)Cn4nc(C(F)F)c5c4C(F)(F)[C@@H]4C[C@H]54)nc4nc(-c5ccc(F)c(CO)c5)ccc4c3=O)c21 (atropisomer, axis not shown; (P)) [Example 5, N—((S)-1-((3P)-3-(4-chloro-1-methyl-3-(methylsulfonamido)-1H-indazol-7-yl)-7-(4-fluoro-3-(hydroxymethyl)phenyl)-4-oxo-3,4-dihydropyrido[2,3-d]pyrimidin-2-yl)-2-(3,5-difluorophenyl)ethyl)-2-((3bS,4aR)-3-(difluoromethyl)-5,5-difluoro-3b,4,4a,5-tetrahydro-1H-cyclopropa[3,4]cyclopenta[1,2-c]pyrazol-1-yl)acetamide] | > 500 | 0.16
5 | Cn1nc(NS(C)(=O)=O)c2c(Cl)ccc(-n3c([C@H](Cc4cc(F)cc(F)c4)NC(=O)Cn4nc(C(F)F)c5c4C(F)(F)[C@@H]4C[C@H]54)nc4nc(-c5ccc(F)c(C#N)c5)ccc4c3=O)c21 (atropisomer, axis not shown; (P)) [Example 30, N—((S)-1-((3P)-3-(4-chloro-1-methyl-3-(methylsulfonamido)-1H-indazol-7-yl)-7-(3-cyano-4-fluorophenyl)-4-oxo-3,4-dihydropyrido[2,3-d]pyrimidin-2-yl)-2-(3,5-difluorophenyl)ethyl)-2-((3bS,4aR)-3-(difluoromethyl)-5,5-difluoro-3b,4,4a,5-tetrahydro-1H-cyclopropa[3,4]cyclopenta[1,2-c]pyrazol-1-yl)acetamide] | > 100 | 0.078
6 | Cn1nc(NS(C)(=O)=O)c2c(Cl)ccc(-n3c([C@H](Cc4cc(F)cc(F)c4)NC(=O)Cn4nc(C(F)F)c5c4C(F)(F)[C@@H]4C[C@H]54)nc4nc(-c5cc(F)cc(F)c5)ccc4c3=O)c21 (atropisomer, axis not shown; (P)) [Example 21, N—((S)-1-((3P)-3-(4-chloro-1-methyl-3-(methylsulfonamido)-1H-indazol-7-yl)-7-(3,5-difluorophenyl)-4-oxo-3,4-dihydropyrido[2,3-d]pyrimidin-2-yl)-2-(3,5-difluorophenyl)ethyl)-2-((3bS,4aR)-3-(difluoromethyl)-5,5-difluoro-3b,4,4a,5-tetrahydro-1H-cyclopropa[3,4]cyclopenta[1,2-c]pyrazol-1-yl)acetamide] | > 100 | 0.08
7 | Cn1nc(NS(C)(=O)=O)c2c(Cl)ccc(-n3c([C@H](Cc4cc(F)cc(F)c4)NC(=O)Cn4nc(C(F)F)c5c4C(F)(F)[C@@H]4C[C@H]54)nc4nc(-c5cc(F)ccc5F)ccc4c3=O)c21 (atropisomer, axis not shown; (P)) [Example 9, N—((S)-1-((3P)-3-(4-chloro-1-methyl-3-(methylsulfonamido)-1H-indazol-7-yl)-7-(2,5-difluorophenyl)-4-oxo-3,4-dihydropyrido[2,3-d]pyrimidin-2-yl)-2-(3,5-difluorophenyl)ethyl)-2-((3bS,4aR)-3-(difluoromethyl)-5,5-difluoro-3b,4,4a,5-tetrahydro-1H-cyclopropa[3,4]cyclopenta[1,2-c]pyrazol-1-yl)acetamide] | > 500 | 0.12
8 | Cn1nc(NS(C)(=O)=O)c2c(Cl)ccc(-n3c([C@H](Cc4cc(F)cc(F)c4)NC(=O)Cn4nc(C(F)F)c5c4C(F)(F)[C@@H]4C[C@H]54)nc4nc(-c5cc(F)c(F)c(F)c5)ccc4c3=O)c21 (atropisomer, axis not shown; (P)) [Example 12, N—((S)-1-((3P)-3-(4-chloro-1-methyl-3-(methylsulfonamido)-1H-indazol-7-yl)-4-oxo-7-(3,4,5-trifluorophenyl)-3,4-dihydropyrido[2,3-d]pyrimidin-2-yl)-2-(3,5-difluorophenyl)ethyl)-2-((3bS,4aR)-3-(difluoromethyl)-5,5-difluoro-3b,4,4a,5-tetrahydro-1H-cyclopropa[3,4]cyclopenta[1,2-c]pyrazol-1-yl)acetamide] | > 100 | 0.21
9 | Cn1nc(NS(C)(=O)=O)c2c(Cl)ccc(-n3c([C@H](Cc4cc(F)cc(F)c4)NC(=O)Cn4nc(C(F)F)c5c4C(F)(F)[C@@H]4C[C@H]54)nc4nc(-c5c(F)cccc5F)ccc4c3=O)c21 (atropisomer, axis not shown; (P)) [Example 3, N—((S)-1-((3P)-3-(4-chloro-1-methyl-3-(methylsulfonamido)-1H-indazol-7-yl)-7-(2,6-difluorophenyl)-4-oxo-3,4-dihydropyrido[2,3-d]pyrimidin-2-yl)-2-(3,5-difluorophenyl)ethyl)-2-((3bS,4aR)-3-(difluoromethyl)-5,5-difluoro-3b,4,4a,5-tetrahydro-1H-cyclopropa[3,4]cyclopenta[1,2-c]pyrazol-1-yl)acetamide] | > 100 | 0.11

— US20220089598A1, “INHIBITORS OF HUMAN IMMUNODEFICIENCY VIRUS REPLICATION” (VIIV HEALTHCARE UK (No. 5) LIMITED, priority 2018, published 2022)
